{"source": "patent US20190374554A1", "about": "“USE OF OXYGENATED CHOLESTEROL SULFATES (OCS) TO TREAT INFLAMMATORY SKIN DISEASE AND SKIN LESIONS” (Virginia Commonwealth University, priority 2016, published 2019)", "key": {"[1]": {"tested_on": "Hannover Wistar rats", "assay": "Acute single dose intramuscular (IM) injection study in rats", "type": "in vivo", "details": "minimal to moderate, drug-treated vs vehicle", "procedure": "For the acute single dose study, Hannover Wistar rats (n=5/sex/dose group) received a single IM injection followed by 2 and 14 day observation periods. The solution that was tested included 30 mg/mL of 25HC3S sodium salt in vehicle (250 mg/mL hydroxypropyl-β-cyclodextrin in 10 mM sodium phosphate buffer in sterile water). Dose levels of 0 (vehicle), 3, 10 and 30 mg/kg of 25HC3S sodium salt were administered in dose volumes of 1.0, 0.1, 0.3 and 1.0 mL/kg. […] The changes were less severe (minimal only) after 14 days, indicating partial recovery; no clear effect of the presence of 25HC3S or vehicle volume was observed."}, "[2]": {"tested_on": "Hannover Wistar rats", "assay": "Two-week subcutaneous (SC) injection study in rats", "type": "in vivo", "procedure": "In a separate study, Hannover Wistar rats (n=12/sex/dose group) received daily SC injections of a solution of 30 mg/mL of 25HC3S sodium salt in vehicle (250 mg/mL hydroxypropyl-β-cyclodextrin in 10 mM sodium phosphate buffer in sterile water) for 2 weeks. Dose levels of 0 (vehicle), 15, 45 and 150 mg/kg of 25HC3S sodium salt were administered in dose volumes of 5.0, 0.5, 1.5 and 5.0 mL/kg. Following 14 days of dose administration, all rats were euthanized and necropsied"}, "[3]": {"assay": "Infusion compatibility: 25HC3S diluted in 5% dextrose infusion bag and eluted through infusion sets (potency, osmolality, pH, appearance)", "type": "physicochemical", "details": "for 24 Hours at 2-8° C. Concentration / 24 Hours at 2-8° C. Osmolality / 24 Hours at 2-8° C. pH / 24 Hours at 25° C. % Remaining Compared to T = 0 / 24 Hours at 25° C. Concentration / 24 Hours at 25° C. Osmolality / 24 Hours at 25° C. pH / T = 0 Conc. / T = 0 Osmolality / T = 0 pH: 5% dextrose bag; for After Storage in Infusion Bag and Collection from Infusion Set % Remaining Compared to T = 0 / After Storage in Infusion Bag and Collection from Infusion Set Concentration / After Storage in Infusion Bag and Collection from Infusion Set Osmolality / After Storage in Infusion Bag and Collection from Infusion Set pH: 5% dextrose, approx. 0.28 mg/mL", "procedure": "A physical and chemical compatibility study was conducted at a 30 mg, 48 mg and 300 mg 25HC3S dose in 5% dextrose and 0.9% sodium chloride infusion bags. Descriptions of the two kinds of infusion sets tested with 25HC3S product diluted in 5% dextrose and 0.9% sodium chloride are listed in Table 15. The tubing in catalog number 2H8480 infusion set was composed of polyvinylchloride (PVC), while the tubing in catalog number 2C8858 was polyethylene lined except for a short pump segment (approximately 12 inches) which was composed of PVC.\n25HC3S for Injection and Vehicle for 25HC3S for Injection, that had been stored at 2-8° C. for approximately 16 months, were used for the compatibility study. After constitution, 30 mg (1.0 mL of constituted product), 48 mg (1.6 mL of constituted product) or 300 mg (10 mL of constituted product) were added to 100 mL infusion bags of 5% dextrose and 0.9% sodium chloride, mixed thoroughly, and stored for 24 hours at room temperature and at 2-8° C. […] Taking into consideration the overfill per infusion bag and the additional volume introduced by adding the constituted 25HC3S product to each bag, the expected concentrations of 25HC3S were 0.28 mg/mL, 0.44 mg/mL, and 2.56 mg/mL in the infusion bags. Two kinds of infusion sets were then attached to the drug containing infusion bags, and the entire contents were eluted through the infusion sets at approximately 50 mL/hour at room temperature. Samples were collected from the 25HC3S prepared infusion bags at T=0 and at 24 hours, and from the total eluent passed through the infusion sets, and tested for 25HC3S concentration using HPLC. Solution visual appearance, osmolality (using method USP<785>), and pH (using method USP<791>) were also measured on the collected samples."}, "[4]": {"details": "bag 24 h at 2-8° C., Baxter 2C8858"}, "[5]": {"details": "bag 24 h at 2-8° C., Baxter 2H8480"}, "[6]": {"details": "bag 24 h at 25° C., Baxter 2C8858"}}, "note": "Values joined by “and” are separate entries in the source; they are usually repeats but may differ in a detail not shown here. Equal entries are not always repeated.", "data": [{"smiles": "C[C@H](CCCC(C)(C)O)[C@H]1CC[C@H]2[C@@H]3CC=C4C[C@@H](OS(=O)(=O)[O-])CC[C@]4(C)[C@H]3CC[C@]12C.[Na+]", "note": "[Formulation 25HC3S, 5-cholesten-3, 25-diol, 3-sulfate]", "values": [{"measurement": "muscle degeneration/regeneration, hemorrhage and inflammation in injected muscles", "setting": "[1]", "value": "incidence and severity similar in vehicle and drug-treated rats"}, {"measurement": "higher mean liver weights compared to controls", "setting": "[2]; male and female rats, 150 mg/kg daily SC, 2 weeks", "value": 10, "unit": "%"}, {"measurement": "lower mean serum cholesterol compared to vehicle controls", "setting": "[2]; male rats, 150 mg/kg daily SC, after 2 weeks", "value": 22, "unit": "%"}, {"measurement": "Cytoplasmic vacuolation of the proximal tubules of the kidneys", "setting": "[2]; rats, 150 mg/kg daily SC, 2 weeks, vs vehicle controls", "value": "severity was similar in vehicle control and rats"}, {"measurement": "collagen degeneration and hemorrhage at the injection sites", "setting": "[2]; rats, daily SC 2 weeks, compared to vehicle (FIG. 1A)", "value": "tended to be lower"}, {"measurement": "alveolar macrophages in the lungs", "setting": "[2]; rats, daily SC 2 weeks, seen in vehicle controls and drug-treated rats", "value": "minimal increase"}, {"measurement": "24 Hours at 2-8° C. Concentration", "setting": "[3]; approx. 0.28 mg/mL 25HC3S", "value": 0.280, "unit": "mg/mL"}, {"measurement": "24 Hours at 2-8° C. Osmolality", "setting": "[3]; approx. 0.28 mg/mL 25HC3S", "value": "250 mmol/kg and 253 mmol/kg"}, {"measurement": "24 Hours at 2-8° C. pH", "setting": "[3]; approx. 0.28 mg/mL 25HC3S", "value": "7.09 and 7.04"}, {"measurement": "24 Hours at 25° C. % Remaining Compared to T = 0", "setting": "[3]; approx. 0.28 mg/mL 25HC3S", "value": "(100.0%)"}, {"measurement": "24 Hours at 25° C. Concentration", "setting": "[3]; approx. 0.28 mg/mL 25HC3S", "value": "0.276 mg/mL and 0.277 mg/mL"}, {"measurement": "24 Hours at 25° C. Osmolality", "setting": "[3]; approx. 0.28 mg/mL 25HC3S", "value": "252 mmol/kg and 249 mmol/kg"}, {"measurement": "24 Hours at 25° C. pH", "setting": "[3]; approx. 0.28 mg/mL 25HC3S", "value": "7.12 and 7.05"}, {"measurement": "T = 0 Conc.", "setting": "[3]; approx. 0.28 mg/mL 25HC3S", "value": "0.276 mg/mL and 0.277 mg/mL and 0.280 mg/mL and 0.279 mg/mL"}, {"measurement": "T = 0 Osmolality", "setting": "[3]; approx. 0.28 mg/mL 25HC3S", "value": "247 mmol/kg and 250 mmol/kg and 251 mmol/kg"}, {"measurement": "T = 0 pH", "setting": "[3]; approx. 0.28 mg/mL 25HC3S", "value": "7.09 and 7.03 and 7.10 and 7.04"}, {"measurement": "24 Hours at 2-8° C. Concentration", "setting": "[3]; approx. 0.44 mg/mL 25HC3S", "value": "0.438 mg/mL and 0.440 mg/mL"}, {"measurement": "24 Hours at 2-8° C. Osmolality", "setting": "[3]; approx. 0.44 mg/mL 25HC3S", "value": "254 mmol/kg and 257 mmol/kg"}, {"measurement": "24 Hours at 2-8° C. pH", "setting": "[3]; approx. 0.44 mg/mL 25HC3S", "value": "6.96 and 6.93"}, {"measurement": "24 Hours at 25° C. % Remaining Compared to T = 0", "setting": "[3]; approx. 0.44 mg/mL 25HC3S", "value": "(100.0%)"}, {"measurement": "24 Hours at 25° C. Concentration", "setting": "[3]; approx. 0.44 mg/mL 25HC3S", "value": "0.447 mg/mL and 0.442 mg/mL"}, {"measurement": "24 Hours at 25° C. Osmolality", "setting": "[3]; approx. 0.44 mg/mL 25HC3S", "value": "256 mmol/kg and 253 mmol/kg"}, {"measurement": "24 Hours at 25° C. pH", "setting": "[3]; approx. 0.44 mg/mL 25HC3S", "value": "6.91 and 6.90"}, {"measurement": "T = 0 Conc.", "setting": "[3]; approx. 0.44 mg/mL 25HC3S", "value": "0.447 mg/mL and 0.442 mg/mL and 0.439 mg/mL"}, {"measurement": "T = 0 Osmolality", "setting": "[3]; approx. 0.44 mg/mL 25HC3S", "value": "255 mmol/kg and 254 mmol/kg and 256 mmol/kg"}, {"measurement": "T = 0 pH", "setting": "[3]; approx. 0.44 mg/mL 25HC3S", "value": "6.83 and 6.81 and 6.82 and 6.88"}, {"measurement": "24 Hours at 2-8° C. Concentration", "setting": "[3]; approx. 2.56 mg/mL 25HC3S", "value": "2.550 mg/mL and 2.530 mg/mL"}, {"measurement": "24 Hours at 2-8° C. Osmolality", "setting": "[3]; approx. 2.56 mg/mL 25HC3S", "value": "246 mmol/kg and 251 mmol/kg"}, {"measurement": "24 Hours at 2-8° C. pH", "setting": "[3]; approx. 2.56 mg/mL 25HC3S", "value": "6.11 and 6.14"}, {"measurement": "24 Hours at 25° C. Concentration", "setting": "[3]; approx. 2.56 mg/mL 25HC3S", "value": "2.470 mg/mL and 2.520 mg/mL"}, {"measurement": "24 Hours at 25° C. Osmolality", "setting": "[3]; approx. 2.56 mg/mL 25HC3S", "value": "257 mmol/kg and 250 mmol/kg"}, {"measurement": "24 Hours at 25° C. pH", "setting": "[3]; approx. 2.56 mg/mL 25HC3S", "value": "6.12 and 6.06"}, {"measurement": "T = 0 Conc.", "setting": "[3]; approx. 2.56 mg/mL 25HC3S", "value": "2.500 mg/mL and 2.510 mg/mL and 2.530 mg/mL and 2.525 mg/mL"}, {"measurement": "T = 0 Osmolality", "setting": "[3]; approx. 2.56 mg/mL 25HC3S", "value": "258 mmol/kg and 247 mmol/kg"}, {"measurement": "T = 0 pH", "setting": "[3]; approx. 2.56 mg/mL 25HC3S", "value": "6.04 and 6.12 and 6.29 and 6.26"}, {"measurement": "After Storage in Infusion Bag and Collection from Infusion Set % Remaining Compared to T = 0", "setting": "[3]; [4]", "value": "(100.4%)"}, {"measurement": "After Storage in Infusion Bag and Collection from Infusion Set Concentration", "setting": "[3]; [4]", "value": 0.280, "unit": "mg/mL"}, {"measurement": "After Storage in Infusion Bag and Collection from Infusion Set Osmolality", "setting": "[3]; [4]", "value": 252, "unit": "mmol/kg"}, {"measurement": "After Storage in Infusion Bag and Collection from Infusion Set pH", "setting": "[3]; [4]", "value": 6.99}, {"measurement": "After Storage in Infusion Bag and Collection from Infusion Set % Remaining Compared to T = 0", "setting": "[3]; [5]", "value": "(100.0%)"}, {"measurement": "After Storage in Infusion Bag and Collection from Infusion Set Concentration", "setting": "[3]; [5]", "value": 0.280, "unit": "mg/mL"}, {"measurement": "After Storage in Infusion Bag and Collection from Infusion Set Osmolality", "setting": "[3]; [5]", "value": 251, "unit": "mmol/kg"}, {"measurement": "After Storage in Infusion Bag and Collection from Infusion Set pH", "setting": "[3]; [5]", "value": 6.95}, {"measurement": "After Storage in Infusion Bag and Collection from Infusion Set % Remaining Compared to T = 0", "setting": "[3]; [6]", "value": "(100.0%)"}, {"measurement": "After Storage in Infusion Bag and Collection from Infusion Set Concentration", "setting": "[3]; [6]", "value": 0.277, "unit": "mg/mL"}, {"measurement": "After Storage in Infusion Bag and Collection from Infusion Set Osmolality", "setting": "[3]; [6]", "value": 252, "unit": "mmol/kg"}]}]}
